Reference: patent US20210338787A1 (priority 2020, published 2021)
Where a name gives a salt, the structure may show the parent alone. Read-outs that look alike come from different tables or passages of the source.

Legend:
[1] = test system: SARS-CoV-2; type: cell-based; settings: Calu-3 cells
[2] = test system: Caco-2 cells; settings: tested concentrations (data not shown)
[3] = test system: SARS-CoV-2; type: cell-based
[4] = test system: HEK-293T cells; type: cell-based, human; settings: tested concentrations (data not shown)
[5] = target: T1, TMPRSS2 (Homo sapiens, UniProt O15393); experiment: TMPRSS2 proteolytic activity in TMPRSS2-overexpressing HEK-293T cells, fluorogenic substrate BOC-QAR-AMC; type: cell-based
T1 construct: expressed in transfected cells; host or cells: HEK-293T
T1 sequence (O15393 whole entry): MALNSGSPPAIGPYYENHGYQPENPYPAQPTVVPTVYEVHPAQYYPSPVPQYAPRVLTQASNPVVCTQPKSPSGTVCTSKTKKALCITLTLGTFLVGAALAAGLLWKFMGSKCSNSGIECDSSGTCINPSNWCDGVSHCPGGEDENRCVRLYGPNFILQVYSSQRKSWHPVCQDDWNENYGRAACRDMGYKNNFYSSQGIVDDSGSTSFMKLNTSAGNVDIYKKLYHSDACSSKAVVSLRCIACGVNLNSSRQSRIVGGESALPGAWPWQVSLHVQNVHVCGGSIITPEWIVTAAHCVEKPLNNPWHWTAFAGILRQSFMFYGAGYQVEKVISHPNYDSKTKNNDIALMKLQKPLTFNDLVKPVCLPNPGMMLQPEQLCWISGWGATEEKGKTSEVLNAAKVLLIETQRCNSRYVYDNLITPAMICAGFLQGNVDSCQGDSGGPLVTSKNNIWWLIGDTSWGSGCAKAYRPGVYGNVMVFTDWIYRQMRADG
Method: B. Arbitrary fluorescence unit (AFU) measurements of control or TMPRSS-overexpressing cells incubated with BOC-QAR-AMC for 75 minutes at 37° C. are shown. Wells containing PBS and BOC-QAR-AMC were used as background fluorescence reads. C. Fluorescence of control or TMPRSS2-overexpressing cells was measured every 15 minutes for a total time of 180 minutes. D. The average proteolytic activity rate per minute of control or TMPRSS2-overexpressing cells. The fluorescent signal was measured by the UV filter (excitation 365 nm and emission 410 nm).
The results in A-C are presented as the means±SE from at least 3 independent experiments performed in duplicate and/or triplicate.
The following describes the development of an experimental framework for quantifying TMPRSS2 proteolytic activity. TMPRSS2 with a C-terminal V5 tag was overexpressed in a human cell line, HEK-293T, because of its high transfectability.
The effect of protease inhibitors on TMPRSS2 activity was tested.

CN(C)C(=O)COC(=O)Cc1ccc(OC(=O)c2ccc(NC(=N)N)cc2)cc1 [camostat mesylate, reference compound]
SARS-CoV-2 plaque formation ([1]; 24 hours after infection): decreased SARS-CoV-2 plaque formation | SARS-CoV-2 plaque formation ([1]; 48 hours after infection): effect of camostat lasted | toxicity in Caco-2 cells [2]: nontoxic | decrease in viral load (genomic SARS-CoV-2 from intracellular RNA) compared with untreated control cells ([3]; Caco-2 cells, 10 μM, twenty hours after infection): −3.9 fold

alpha 1 antitrypsin [A1AT]
toxic effects in viability assays [4]: did not demonstrate toxic effects | toxicity in Caco-2 cells [2]: nontoxic | IC50 ([5]; BOC-QAR-AMC, read-out: IC50 of inhibition of TMPRSS2 proteolytic activity): 357 nM | decrease in viral load (genomic SARS-CoV-2 from intracellular RNA) compared with untreated control cells [3]: −2.6 fold

B1: secretory leukocyte protease inhibitor (protein, UniProt P03973 26-132, looked up)
Antileukoproteinase: SGKSFKAGVCPPKKSAQCLRYKKPECQSDWQCPGKKRCCPDTCGIKCLDPVDTPNPTRRKPGKCPVTYGQCLMLNPPNFCEMDGQCKRDLKCCMGMCGKSCVSPVKA
inhibition of TMPRSS2 proteolytic activity ([5]; all tested concentrations): none of the tested concentrations of SLPI inhibited TMPRSS2 proteolytic activity
